According to patent US20230091047A1 (priority 2019, published 2023):

Key:
[1] = system: HBV (HepG2.117 cell line, inducibly HBV producing); assay: Anti-HBV activity: intracellular HBV DNA by real-time PCR in HepG2.117 cells after 3 days of treatment; assay type: cell-based, hepatitis B virus; conditions: Hepatitis B virus, HepG2.117, 72 h, HepG2.117 cells, intracellular HBV DNA by real-time PCR, 3 days of treatment, mean value; read-out: EC50 (μM, mean value)
Summary of the method: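 Inducible HBV-producing HepG2.117 line (Tet-off); 3-day exposure to serially diluted compound after induction; real-time PCR of intracellular viral DNA.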

in vitro = assay type: cell-based; conditions: human, HepG2 or HepG2.117 cells, ATPlite, 3-days incubation (not marked with *), mean value
Summary of the method: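 Luminescent ATP quantitation served as the viability endpoint following a 3- or 4-day incubation with test compounds.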

Row | Structure (SMILES) | EC50 [1] [µM] | CC50 at 3 days (in vitro) [µM]
1 | CNC(=O)c1ccc(-n2c(NCc3ncnn3-c3ccccc3)nc3c(c2=O)C[C@@H](C)N(C(=O)c2ccc(Cl)c(Cl)c2)C3)cc1 [Compound C553] | 23.7 | > 50
2 | CNC(=O)c1ccc(-n2c(NCc3cc(C(F)F)no3)nc3c(c2=O)C[C@@H](C)N(C(=O)c2ccc(Cl)c(Cl)c2)C3)cc1 [Compound C554] | 1.77 | > 50
3 | CNC(=O)c1ccc(-n2c(NCc3ccc(-n4cncn4)cc3)nc3c(c2=O)C[C@@H](C)N(C(=O)c2ccc(Cl)c(Cl)c2)C3)cc1 [Compound C555] | 1.33 | > 50
4 | CNC(=O)c1ccc(-n2c(NCc3ncn(-c4ccccc4)n3)nc3c(c2=O)C[C@@H](C)N(C(=O)c2ccc(Cl)c(Cl)c2)C3)cc1 [Compound C556] | 0.57 | 25.6
5 | CNC(=O)c1ccc(-n2c(NCc3cnnn3C)nc3c(c2=O)C[C@@H](C)N(C(=O)c2ccc(Cl)c(Cl)c2)C3)cc1 [Compound C557] | > 25 | > 50
6 | CNC(=O)c1ccc(-n2c(N3CCCOC(C)C3)nc3c(c2=O)C[C@@H](C)N(C(=O)c2ccc(Cl)c(Cl)c2)C3)cc1 (some centres unmarked) [Compound C558] | 0.46 | > 50
7 | CNC(=O)c1ccc(-n2c(NC3CCOC3)nc3c(c2=O)C[C@@H](C)N(C(=O)c2ccc(Cl)c(Cl)c2)C3)cc1 (some centres unmarked) [Compound C559] | 0.6 | > 50
8 | CNC(=O)c1ccc(-n2c(NCc3cnn(C)n3)nc3c(c2=O)C[C@@H](C)N(C(=O)c2ccc(Cl)c(Cl)c2)C3)cc1 [Compound C560] | 2.59 | > 50
9 | CNC(=O)c1ccc(-n2c(NCc3ncnn3C)nc3c(c2=O)C[C@@H](C)N(C(=O)c2ccc(Cl)c(Cl)c2)C3)cc1 [Compound C561] | > 25 | > 50
10 | CNC(=O)c1ccc(-n2c(N(C)Cc3cnc4ccc(Cl)cn34)nc3c(c2=O)C[C@@H](C)N(C(=O)c2ccc(Cl)c(Cl)c2)C3)cc1 [Compound C562] | 2.87 | 26.8
11 | CNC(=O)c1ccc(-n2c(NC(C)C)nc3c(c2=O)C[C@@H](C)N(C(=O)c2ccc(Br)cc2)C3)cc1 [Compound C563] | 0.26 | > 50
12 | CNC(=O)c1ccc(-n2c(NC(C)C)nc3c(c2=O)C[C@@H](C)N(C(=O)c2cc4c(C)cc(F)cc4[nH]2)C3)cc1 [Compound C564] | 0.02 | 21.7
13 | CNC(=O)c1ccc(-n2c(NC(C)C)nc3c(c2=O)C[C@@H](C)N(C(=O)c2ccc(Br)cc2Cl)C3)cc1 [Compound C565] | 0.68 | > 50
14 | CNC(=O)c1ccc(-n2c(NC(C)C)nc3c(c2=O)C[C@@H](C)N(C(=O)c2cc4c(Cl)c(Cl)ccc4[nH]2)C3)cc1 [Compound C566] | 0.03 | 6.8
15 | CNC(=O)c1ccc(-n2c(NC(C)C)nc3c(c2=O)C[C@@H](C)N(C(=O)c2cc4c(C)cc(OC)cc4[nH]2)C3)cc1 [Compound C567] | 0.67 | 36.5
16 | CNC(=O)c1ccc(-n2c(NC(C)C)nc3c(c2=O)C[C@@H](C)N(C(=O)c2cc4ccc(Br)c(F)c4[nH]2)C3)cc1 [Compound C568] | 0.02 | 25.8
17 | CNC(=O)c1ccc(-n2c(NC(C)C)nc3c(c2=O)C[C@@H](C)N(C(=O)c2cc4c(Br)cccc4[nH]2)C3)cc1 [Compound C569] | 0.01 | 21.4
18 | CNC(=O)c1ccc(-n2c(NC(C)C)nc3c(c2=O)C[C@@H](C)N(C(=O)c2cc4c(C)c(F)ccc4[nH]2)C3)cc1 [Compound C570] | 0.01 | 24.5
19 | CNC(=O)c1ccc(-n2c(NC(C)C)nc3c(c2=O)C[C@@H](C)N(C(=O)c2ccc(OC(F)F)c(Br)c2)C3)cc1 [Compound C571] | 0.09 | > 50
20 | CNC(=O)c1ccc(-n2c(NC(C)C)nc3c(c2=O)C[C@@H](C)N(C(=O)c2cc4c(Br)c(F)ccc4[nH]2)C3)cc1 [Compound C572] | 0.01 | 14.6
21 | CNC(=O)c1ccc(-n2c(NC(C)C)nc3c(c2=O)C[C@@H](C)N(C(=O)c2ccc(C(C)(F)F)cc2)C3)cc1 [Compound C573] | 0.32 | > 50
22 | CNC(=O)c1ccc(-n2c(NC(C)C)nc3c(c2=O)C[C@@H](C)N(C(=O)c2cc(F)c(Br)cc2F)C3)cc1 [Compound C574] | 0.73 | > 50
23 | CNC(=O)c1ccc(-n2c(NC(C)C)nc3c(c2=O)C[C@@H](C)N(C(=O)c2ccc(Br)c(OC(C)C)c2)C3)cc1 [Compound C575] | 0.55 | > 50
24 | CNC(=O)c1ccc(-n2c(NC(C)C)nc3c(c2=O)C[C@@H](C)N(C(=O)c2cc4c(Br)cc(Cl)cc4[nH]2)C3)cc1 [Compound C576] | 0.05 | > 50
25 | CNC(=O)c1ccc(-n2c(NC(C)C)nc3c(c2=O)C[C@@H](C)N(C(=O)c2cc(Cl)c(Br)cc2F)C3)cc1 [Compound C577] | 0.17 | > 50

Row | Structure (SMILES) | EC50 [1] [µM] | CC50 at 3 days (in vitro) [µM]
26 | CNC(=O)c1ccc(-n2c(NC(C)C)nc3c(c2=O)C[C@@H](C)N(C(=O)c2cc(C)c(C)c(Br)c2)C3)cc1 [Compound C578] | 0.11 | 33.2
27 | CNC(=O)c1ccc(-n2c(NC(C)C)nc3c(c2=O)C[C@@H](C)N(C(=O)c2cc4cc(Cl)ccc4s2)C3)cc1 [Compound C579] | 0.12 | > 50
28 | CNC(=O)c1ccc(-n2c(NC(C)C)nc3c(c2=O)C[C@@H](C)N(C(=O)c2ccc(Br)c(Cl)c2F)C3)cc1 [Compound C580] | 0.08 | > 50
29 | CNC(=O)c1ccc(-n2c(NC(C)C)nc3c(c2=O)C[C@@H](C)N(C(=O)c2ccc(Br)c(F)c2C)C3)cc1 [Compound C581] | 0.15 | > 50
30 | CNC(=O)c1ccc(-n2c(NC(C)C)nc3c(c2=O)C[C@@H](C)N(C(=O)c2ccc(Cl)cc2Cl)C3)cc1 [Compound C582] | 2.34 | > 50
31 | CNC(=O)c1ccc(-n2c(NC(C)C)nc3c(c2=O)C[C@@H](C)N(C(=O)c2cc4cc(Br)ccc4s2)C3)cc1 [Compound C583] | 0.21 | > 50
32 | CNC(=O)c1ccc(-n2c(NC(C)C)nc3c(c2=O)C[C@@H](C)N(C(=O)c2ccc(Br)c(C)c2F)C3)cc1 [Compound C584] | 0.1 | > 50
33 | CNC(=O)c1ccc(-n2c(NC(C)C)nc3c(c2=O)C[C@@H](C)N(C(=O)c2ccc(C)c(C(F)(F)F)c2)C3)cc1 [Compound C585] | 0.1 | > 50
34 | CNC(=O)c1ccc(-n2c(NC(C)C)nc3c(c2=O)C[C@@H](C)N(C(=O)c2ccc(C)c(Br)c2)C3)cc1 [Compound C586] | 0.21 | > 50
35 | CNC(=O)c1ccc(-n2c(NC(C)C)nc3c(c2=O)C[C@@H](C)N(C(=O)c2cc4c(OC(F)(F)F)cccc4[nH]2)C3)cc1 [Compound C587] | 0.09 | 9.2
36 | CNC(=O)c1ccc(-n2c(NC(C)C)nc3c(c2=O)C[C@@H](C)N(C(=O)c2ccc(Br)c4c2OCCC4)C3)cc1 [Compound C588] | 1.61 | > 50
37 | CNC(=O)c1ccc(-n2c(NC(C)C)nc3c(c2=O)C[C@@H](C)N(C(=O)c2ccc(Br)c(C)c2)C3)cc1 [Compound C589] | 0.04 | > 50
38 | CNC(=O)c1ccc(-n2c(NC(C)C)nc3c(c2=O)C[C@@H](C)N(C(=O)c2cc(Cl)c(Cl)cc2OC)C3)cc1 [Compound C590] | 12.4 | > 50
39 | CNC(=O)c1ccc(-n2c(NC(C)C)nc3c(c2=O)C[C@@H](C)N(C(=O)c2cc4sc(Br)cc4[nH]2)C3)cc1 [Compound C591] | 0.01 | 23.2
40 | CNC(=O)c1ccc(-n2c(NC(C)C)nc3c(c2=O)C[C@@H](C)N(C(=O)c2cc(F)c(Br)cc2Cl)C3)cc1 [Compound C592] | 0.7 | > 50
41 | CNC(=O)c1ccc(-n2c(NC(C)C)nc3c(c2=O)C[C@@H](C)N(C(=O)c2ccc(Cl)cc2OC)C3)cc1 [Compound C593] | > 25 | > 50
42 | CNC(=O)c1ccc(-n2c(NC(C)C)nc3c(c2=O)C[C@@H](C)N(C(=O)c2cc4ccc(Cl)c(F)c4[nH]2)C3)cc1 [Compound C594] | 0.04 | 26.1
43 | CNC(=O)c1ccc(-n2c(N(C)Cc3nc(C)n[nH]3)nc3c(c2=O)C[C@@H](C)N(C(=O)c2ccc(Cl)c(Cl)c2)C3)cc1 [Compound C595] | > 25 | > 50
44 | CNC(=O)c1ccc(-n2c(NC(C)c3ccc(C(F)(F)F)s3)nc3c(c2=O)C[C@@H](C)N(C(=O)c2ccc(Cl)c(Cl)c2)C3)cc1 (some centres unmarked) [Compound C596] | 0.4 | 25.5
45 | CNC(=O)c1ccc(-n2c(NCc3cccc(-c4nnc[nH]4)c3)nc3c(c2=O)C[C@@H](C)N(C(=O)c2ccc(Cl)c(Cl)c2)C3)cc1 [Compound C597] | 9.49 | > 50
46 | CNC(=O)c1ccc(-n2c(NCc3nc(C(F)(F)F)n[nH]3)nc3c(c2=O)C[C@@H](C)N(C(=O)c2ccc(Cl)c(Cl)c2)C3)cc1 [Compound C598] | > 25 | > 50
47 | CNC(=O)c1ccc(-n2c(NCCCc3nc(=O)[nH][nH]3)nc3c(c2=O)C[C@@H](C)N(C(=O)c2ccc(Cl)c(Cl)c2)C3)cc1 [Compound C599] | > 25 | > 50
48 | CNC(=O)c1ccc(-n2c(NCc3n[nH]c(=O)[nH]3)nc3c(c2=O)C[C@@H](C)N(C(=O)c2ccc(Cl)c(Cl)c2)C3)cc1 [Compound C600] | > 25 | > 50
49 | CNC(=O)c1ccc(-n2c(NCC(n3cncn3)C(F)(F)F)nc3c(c2=O)C[C@@H](C)N(C(=O)c2ccc(Cl)c(Cl)c2)C3)cc1 (some centres unmarked) [Compound C601] | 7.71 | > 50
